Reference: the SangsterLogP compilation

Assay: method code SF-AS, from DOI: 10.1111/j.1399-3011.1986.tb03252.x
Settings: pH 7.0

Compound	logD
CC(=O)NCC(N)=O	-1.68
CCCC(NC(C)=O)C(N)=O (stereo not drawn)	-0.45
CC(=O)NC(C)(C)C(N)=O	-0.87
CCCC(CCC)(NC(C)=O)C(N)=O	0.75
C=CCC(NC(C)=O)C(N)=O (stereo not drawn)	-0.86
C=CCC(CC=C)(NC(C)=O)C(N)=O	0.05
CC(=O)NC(Cc1ccccc1)(Cc1ccccc1)C(N)=O	2.09
CC(=O)NC(C)C(N)=O (stereo not drawn)	-1.41
